Values of other authors as cited in US8685950B2, “Use of aromatase inhibitors for treatment of ectopic pregnancy” (Wayne State University, priority 2004, dated 2014).
Where a name gives a salt, the structure may show the parent alone. Blank lines part the entries; values can stand above or below the compound they belong to.

Columns and labels:
[1] = baboons; effect reversed by diethylstilbestrol
progesterone production = conditions: baboon, early pregnancy
[2] = in vivo
ectopic pregnancy = ectopic pregnancy patients

placental progesterone formation and serum progesterone concentrations [1]: decreased
Structure (SMILES): CCN(CC)CCOc1ccc(C(O)(Cc2ccc(OC)cc2)c2ccccc2)cc1 (stereo not drawn) [ethamoxytriphetol]

Structure (SMILES): CCN(CC)CCOc1ccc(C(O)(Cc2ccc(OC)cc2)c2ccccc2)cc1 (stereo not drawn) [MER-25]
plasma progesterone (progesterone production): depression in plasma progesterone

amount of estrogen and progesterone receptors (primate endometrium): decrease the amount of both receptors
Structure (SMILES): C1=C(c2ccccc2)C(c2ccc(OCCN3CCCCC3)cc2)Oc2ccccc21 (stereo not drawn) [CDRI-85/287]

Structure (SMILES): CCC1(c2ccc(N)cc2)CCC(=O)NC1=O (stereo not drawn) [aminoglutethimide]
patients stopping the treatment because of side effects (lethargy, rashes, nausea, fever) [2]: 8-15%

Structure (SMILES): CN(Cc1cnc2nc(N)nc(N)c2n1)c1ccc(C(=O)N[C@@H](CCC(=O)O)C(=O)O)cc1 [methotrexate]
period to resolution of the pregnancy (ectopic pregnancy): more than three weeks in most patients

Structure (SMILES): COc1ccc(C2=C(C(=O)c3ccc(OCCN4CCCC4)cc3)c3ccccc3CC2)cc1 [trioxifene mesylate]
plasma progesterone (progesterone production): no such effect was found
